Read-outs that look alike come from different tables or passages of the source.
Key:
Assay in all cases: biochemical
MMP-13 = target: T1, MMP-13 (Homo sapiens, UniProt P45452); conditions: read-out: MMP-13 IC50
T1 construct: made in house; host or cells: baculovirus / insect cells
Method in brief: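 Assay buffer 100 mM Tris-HCl, 100 mM NaCl, 10 mM CaCl2, pH 7.5. Activated MMP + inhibitor, 5 min RT; then methoxycoumarin peptide substrate, 4 μM final. Readout fluorescence; IC50 calculated.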

MMP-1 = target: T2, MMP-1 (Homo sapiens, UniProt P03956); conditions: read-out: MMP-1 IC50
T2 construct: made in house; host or cells: transfected HT-1080 cells (provided by Dr. Harold Welgus, Washington University)
T2 sequence (P03956 100-469): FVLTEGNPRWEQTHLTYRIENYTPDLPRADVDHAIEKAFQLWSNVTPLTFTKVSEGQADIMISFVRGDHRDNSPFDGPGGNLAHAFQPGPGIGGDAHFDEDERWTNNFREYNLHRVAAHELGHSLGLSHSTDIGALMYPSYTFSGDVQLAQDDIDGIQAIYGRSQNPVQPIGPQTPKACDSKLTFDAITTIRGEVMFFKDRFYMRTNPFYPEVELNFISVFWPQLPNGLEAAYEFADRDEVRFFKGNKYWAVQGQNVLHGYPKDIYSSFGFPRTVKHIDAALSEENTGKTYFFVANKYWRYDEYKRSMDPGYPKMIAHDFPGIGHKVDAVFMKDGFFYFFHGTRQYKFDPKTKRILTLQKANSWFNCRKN
Method in brief: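 APMA- or trypsin-activated enzymes were preincubated with inhibitor for 5 min at room temperature, then the fluorogenic substrate MCA-Pro-Leu-Gly-Leu-Dpa-Ala-Arg-NH2 was added to a final 4 μM.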

MMP-2 = target: T3, MMP-2 (Homo sapiens, UniProt P08253); conditions: read-out: MMP-2 IC50
T3 construct: made in house; provided by Dr. Gregory Goldberg, Washington University
T3 sequence (P08253 110-660): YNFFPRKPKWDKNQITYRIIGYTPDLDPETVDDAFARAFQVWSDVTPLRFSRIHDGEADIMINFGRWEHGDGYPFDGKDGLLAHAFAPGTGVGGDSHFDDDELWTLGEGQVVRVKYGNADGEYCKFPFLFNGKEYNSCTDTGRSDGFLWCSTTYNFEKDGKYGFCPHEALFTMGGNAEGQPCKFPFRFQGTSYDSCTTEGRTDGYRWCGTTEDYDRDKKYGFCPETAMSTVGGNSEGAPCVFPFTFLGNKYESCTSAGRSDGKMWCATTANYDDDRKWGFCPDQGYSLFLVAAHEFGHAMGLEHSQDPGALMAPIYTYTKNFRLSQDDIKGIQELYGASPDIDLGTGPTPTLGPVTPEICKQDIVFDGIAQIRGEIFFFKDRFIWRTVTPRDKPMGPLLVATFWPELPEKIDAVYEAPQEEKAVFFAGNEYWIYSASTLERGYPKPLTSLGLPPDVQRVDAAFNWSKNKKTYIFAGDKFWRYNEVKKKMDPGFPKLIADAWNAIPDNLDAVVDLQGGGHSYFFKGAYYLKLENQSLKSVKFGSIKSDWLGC
Method in brief: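 APMA- or trypsin-activated human MMPs (MMP-1 from transfected HT-1080 cells, MMP-2 from transfected cells) preincubated with inhibitor in 1% DMSO at room temperature, then 4 μM MCA-Pro-Leu-Gly-Leu-Dpa-Ala-Arg-NH2 added in Tris/NaCl/CaCl2 buffer pH 7.5. IC50 from fluorescence reduction versus inhibitor concentration.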

[1] = recombinant human MMP-13, MCA peptide substrate 4 μM, pH 7.5, room temperature
[2] = recombinant human MMP-1, MCA peptide substrate 4 μM, pH 7.5, room temperature
[3] = recombinant human MMP-2, MCA peptide substrate 4 μM, pH 7.5, room temperature

Compound	IC50 (MMP-13; [1]) [nM]	IC50 (MMP-1; [2]) [nM]	IC50 (MMP-2; [3]) [nM]	IC50 (MMP-13) [nM]	IC50 (MMP-1) [nM]	IC50 (MMP-2) [nM]
CSc1nccc(N2CCC(C(=O)NO)(S(=O)(=O)c3ccc(Oc4ccc(OC(F)(F)F)cc4)cc3)CC2)n1 [Example 410]	0.6	> 10000	0.25	–	–	–
O=C(Nc1ccncn1)C1CCN(c2ccc(S(=O)(=O)C3(C(=O)NO)CCOCC3)cc2)CC1 [Example 74]	9	> 10000	80	–	–	–
CC1CC(C)CN(C(=O)C2CCN(c3ccc(S(=O)(=O)C4(C(=O)NO)CCN(C(=O)OCC5c6ccccc6-c6ccccc65)CC4)cc3)CC2)C1 (stereo not drawn) [Example 274]	–	–	–	160	> 10000	> 10000
O=C(NO)C1(S(=O)(=O)c2ccc(N3CCN(S(=O)(=O)c4ccccc4OC(F)(F)F)CC3)cc2)CCOCC1 [Example 673]	14.8	> 10000	455	–	–	–
O=C(NO)C1(S(=O)(=O)c2ccc(N3CCC(OCc4ccc(Cl)cc4)CC3)cc2)CCN(C2CC2)CC1 [Example 419]	4.2	> 10000	400	–	–	–
O=C(NO)C1(S(=O)(=O)c2ccc(N3CCN(c4ccc(F)cc4F)CC3)cc2)CCOCC1 [Example 87]	4	> 10000	15.5	–	–	–
O=C(NO)C1(S(=O)(=O)c2ccc(N3CCCC3)cc2)CCSCC1 [Example 155]	130	> 10000	240	–	–	–
O=C(NO)C1(S(=O)(=O)c2ccc(Oc3ccc(C(F)(F)F)cc3)cc2)CCN(c2ccccn2)CC1 [Example 395]	0.9	> 10000	0.5	–	–	–
O=C(NO)C1(S(=O)(=O)c2ccc(N3CCC(CCOCc4ccc(F)cc4)CC3)cc2)CCOCC1 [Example 500]	3	> 10000	22	–	–	–
O=C(NO)C1(S(=O)(=O)c2ccc(Oc3ccncc3)cc2)CCS(=O)(=O)CC1 [Example 160]	300	> 10000	90	–	–	–
CCC(C)OCc1ccc(COC2CCN(c3ccc(S(=O)(=O)C4(C(=O)NO)CCOCC4)cc3)CC2)cc1 (stereo not drawn) [Example 556]	4.5	> 10000	170	–	–	–
O=C(NO)C1(S(=O)(=O)c2ccc(N3CCC(Oc4ccc5c(c4)OCO5)CC3)cc2)CCOCC1 [Example 644]	1.6	8800	3.3	–	–	–
CS(=O)(=O)N1CCC(C(=O)NO)(S(=O)(=O)c2ccc(Oc3ccc(OC(F)(F)F)cc3)cc2)CC1 [Example 273, N-Hydroxy-1-(methylsulfonyl)-4-[[4-[4-sulfonyl]-(trifluoromethoxy)phenoxy]phenyl]-4-piperidinecarboxamide]	0.3	> 10000	0.1	–	–	–
CCOC1CCN(c2ccc(S(=O)(=O)C3(C(=O)NO)CCOCC3)cc2)CC1 [Example 166]	32.7	> 10000	240	–	–	–
O=C(NO)C1(S(=O)(=O)c2ccc(N3CC[C@@H](OCc4ccccc4)C3)cc2)CCOCC1 [Example 530]	20	> 10000	60.7	–	–	–
O=C(NO)C1(S(=O)(=O)c2ccc(N3CCC(Oc4ccc([N+](=O)[O-])cc4)CC3)cc2)CCOCC1 [Example 546]	2.7	> 10000	18.6	–	–	–
Cc1ccccc1N1CCN(c2ccc(S(=O)(=O)C3(C(=O)NO)CCOCC3)cc2)CC1 [Example 536]	7.7	> 10000	88	–	–	–
CC(C)c1ccc(Oc2ccc(S(=O)(=O)C3(C(=O)NO)CCSCC3)cc2)cc1 [Example 148]	2.5	> 10000	3.7	–	–	–

Reference: US6750228B1, “Aromatic sulfone hydroxamic acid metalloprotease inhibitor” (priority 1997, dated 2004)
